Test results taken from paper PMC10974317, “Anti-COVID Drugs (MMV COVID Box) as Leishmanicidal Agents: Unveiling New Therapeutic Horizons” (Pharmaceuticals, 2024).
Where two headings read alike, the source gives them in different places.

Key:
[1] = test system: Leishmania amazonensis promastigotes; experiment: Leishmanicidal activity against promastigotes (alamarBlue assay); format: cell-based; settings: 72 h, mean ± SD, read-out: inhibitory concentration 50 (IC50), promastigote stage, L. amazonensis
Method: (§1) Initial screening of the 160 compounds against Leishmania promastigotes was performed at 10 μM following MMV foundation instructions provided with the box. The compound activity was assessed using the modified alamarBlue® assay (Invitrogen/Life Technologies, Madrid, Spain) with 10^6 promastigotes per well. DMSO concentration never surpassed 0.1% (v/v) to avoid impacting parasite proliferation or morphology. Subsequently, an EnSpire multimode plate reader (PerkinElmer, MA, USA) was used to measure fluorescence after 72 h. […] Serial dilutions were made in 96-well plates and incubated with parasites for 72 h after adding alamarBlue®. IC50 values were calculated using SigmaPlot 14.0 (Systat Software Inc., Chicago, IL, USA) based on fluorescence measurements. Each concentration was tested in duplicate across three independent experiments.

[2] = test system: Leishmania donovani promastigotes; experiment: as above; format: cell-based; settings: 72 h; for IC50: Leishmania donovani, read-out: inhibitory concentration 50 (IC50), promastigote stage, L. donovani
Method: as §1

[3] = test system: L. amazonensis intracellular amastigotes; experiment: Intracellular amastigote activity (parasite rescue and transformation assay); format: cell-based, Leishmania amazonensis; settings: for Selectivity index (CC50/IC50): CC50 murine macrophages / IC50 L. amazonensis amastigotes
Method: Intracellular amastigote activity against L. amazonensis was measured through a parasite rescue and transformation assay for the purchased compounds. Macrophages were seeded in a 96-well plate and infected with promastigotes at the metacyclic stage for subsequent compound treatment. After incubation, macrophages were lysed, and the medium and conditions were changed to stimulate amastigote transformation. The results were assessed using alamarBlue® [28].

[4] = test system: Leishmania amazonensis promastigotes; experiment: Mitochondrial membrane potential disruption (JC-1); format: cell-based; settings: 24 h with IC90, vs negative control
Method: JC-1 Mitochondrial Membrane Potential kit (Cayman Chemical, Ann Arbor, MI, USA) was employed following the manufacturer’s instructions. […] Three independent experiments were conducted for this assay.

[5] = promastigotes, alamarBlue, mean ± SD, w/a: without activity
[6] = Leishmania amazonensis, Macrophage, in Mus musculus, intracellular amastigotes in murine macrophages, read-out: IC50, amastigote stage, L. amazonensis

Row | SMILES | IC50 ([1]; Leishmania amazonensis) | IC50 [2, 5] | Selectivity index (CC50/IC50) [3] | IC50 [3, 6] | change in mitochondrial membrane potential (ΔΨm) [4] | IC50 [1] | other results
1 | CC(C)N1CCN(c2ccc(OCC3COC(Cn4cncn4)(c4ccc(Cl)cc4Cl)O3)cc2)CC1 (stereo not drawn) [Terconazole] | 3820 ± 1040 nM | 11600 ± 1380 nM | 19 | < 2400 nM | significant decrease | – | IC50 ([3]; intracellular amastigotes in murine macrophages, read-out: IC50, amastigote stage, L. amazonensis): 2380 ± 400 nM
2 | CO[C@@H]1[C@H](N(C)C(=O)c2ccccc2)C[C@H]2O[C@]1(C)n1c3ccccc3c3c4c(c5c6ccccc6n2c5c31)C(=O)NC4 [Midostaurin] | – | – | – | – | – | – | activity against the amastigote form ([3]; at 10 μM): no activity
3 | C[C@@H]1CCCN1CCc1cc2cc(-c3ccc(C#N)cc3)ccc2o1 [ABT239] | < 1400 nM | 1680 ± 250 nM | 46 | 490 ± 130 nM | – | 1310 ± 70 nM | –
4 | CCCCCCCCCCCCCCCCOP(=O)([O-])OCC[N+](C)(C)C [Miltefosine] | – | – | 23 | – | – | – | IC50 [2]: 72200 ± 3060 nM
5 | C=CCNc1nc(NCC=C)nc(N2CCN(C(c3ccc(F)cc3)c3ccc(F)cc3)CC2)n1 [Almitrine] | < 1400 nM | – | – | < 2400 nM | significant decrease | 1190 ± 20 nM | inhibitory concentration 50 (IC50), promastigote stage, L. donovani [2, 5]: w/a at 100; IC50 ([3]; read-out: IC50, amastigote stage, L. amazonensis, intracellular amastigotes in murine macrophages): 2180 ± 470 nM
6 | CC(C)C[C@H](NC(=O)[C@H](Cc1ccccc1)NC(=O)c1cnccn1)B(O)O [Bortezomib] | 420 ± 80 nM | 37200 ± 2510 nM | – | – | significant decrease | – | IC50 ([3]; Leishmania amazonensis, Macrophage, in Mus musculus, read-out: IC50, amastigote stage, L. amazonensis, intracellular amastigotes in murine macrophages): 40 ± 10 nM
